According to US20030232013A1, “Therapeutic and diagnostic targeting of cancers cells with tumor homing peptides” (priority 2002, published 2003):
Structures can show the parent of a compound that is named as a salt. Where two headings read alike, the source gives them in different places. Numbered stars: 1 amine (or outer) side, 2 acyl side, 3 side chain; on linkers, the order of the positions; unused ones are H or OH. Bridge positions count the residues as written; N and C are the ends. Square brackets hold non-standard residues; d marks the D form. Peptide text beside a SMILES is read from it. I, II: the chains in the order shown. * marks the point of attachment. Actinocin(9to1) = Cc1c2oc3c(C)ccc(C(=O)[*:1])c3nc-2c(C(=O)[*:2])c(N)c1=O; DOTA = O=C(O)CN1CCN(CC(=O)O)CCN(CC(=O)*)CCN(CC(=O)O)CC1; NMeV = CN[C@H](C(=O)O)C(C)C; Ahx = NCCCCCC(=O)O; Sar = CNCC(=O)O

Assays:
[1] = in vivo; cited from earlier work
[2] = tested on: T47D (Human) breast cancer cells; assay: In vitro competitive cell binding assay, T47D; settings: competitive binding vs. ^125I-Tyr^5-6-Ahx-Phe^19-STh or ^125I-Tyr^5-Phe^19-STh; read-out: In vitro IC50, Breast T47D (Human)
Description: (§1) In Vitro Competitive Cell Binding Assay. The IC50 values of both metallated and non-metallated STh conjugates were determined in human cancer cells by a competitive displacement cell binding assay using ^125I-STh (^125I-Tyr^5-Phe^19-STh or ^125I-Tyr^5-6-Ahx-Phe^19-STh). […] After the incubation, the reaction medium was aspirated and cells were washed three times with media. The radioactivity bound to the cells was counted in a Packard Riastar gamma counting system. The ^125I-STh bound to cells was plotted vs. increasing concentrations of STh conjugate to determine the respective IC50 values (Table 3). For statistical considerations, three separate in vitro cell binding experiments with each conjugate were performed in duplicate.

[3] = in vivo; cited from earlier work; remark: listed apart in the source
[4] = tested on: chronic myelogenous leukemia; settings: previously untreated chronic myelogenous leukemia; cited from earlier work
[5] = in vivo, cited from earlier work
Hodgkin's disease = settings: cited from earlier work
[6] = cited from earlier work
[7] = cited from earlier work; remark: listed apart in the source
multiple myeloma = settings: oral administration; cited from earlier work
[8] = cited from earlier work; remark: listed apart in the source
[9] = humans, cited from earlier work
[10] = oral radioactive lomustine, cited from earlier work
T-47D cells = assay: Scatchard analysis, T-47D; format: binding, human
Description: (§2) Scatchard Analysis. Scatchard analysis was performed in human cancer cells by a receptor-binding assay using ^125I-STh and 6-Ahx-Phe^19-STh or Phe^19-STh. […] After the incubation, the reaction medium was aspirated and cells were washed three times with media. The radioactivity bound to the cells was counted in a Packard Riastar gamma counting system. The experiment was performed in duplicate and average values were used for the calculations. The total bound peptide (B, both radioactive and non-radioactive), was obtained by multiplying the fraction of bound labeled peptide with the total concentration of peptide (both radioactive and non-radioactive). The total free peptide (F, both radioactive and non-radioactive) was obtained by substracting the total bound peptide from the total concentration of peptide. The non-specific binding was neglected in the calculations as it was <3%. The ratio of concentration of total bound and total free peptide (B/F) was plotted vs. total bound peptide (B) to determine the Kd (−1/slope) and Bmax (X-intercept) values. The number of receptors per cell was calculated from the Bmax (Table 4).

MB-231 cells = assay: Scatchard analysis, MB-231; format: binding, human
Description: as §2

[11] = in vivo; cited from earlier work; remark: listed apart in the source
[12] = tested on: MB-231 (Human) breast cancer cells; assay: In vitro competitive cell binding assay, MB-231; settings: competitive binding vs. ^125I-Tyr^5-6-Ahx-Phe^19-STh or ^125I-Tyr^5-Phe^19-STh; read-out: In vitro IC50, Breast MB-231 (Human)
Description: as §1

[13] = tested on: MCF-7 (Human) breast cancer cells; assay: In vitro competitive cell binding assay, MCF-7; settings: competitive binding vs. ^125I-Tyr^5-6-Ahx-Phe^19-STh or ^125I-Tyr^5-Phe^19-STh
Description: as §1

[14] = tested on: CFPAC-1 (Human) pancreatic cancer cells; assay: In vitro competitive cell binding assay, CFPAC-1; settings: competitive binding vs. ^125I-Tyr^5-6-Ahx-Phe^19-STh or ^125I-Tyr^5-Phe^19-STh
Description: as §1

[15] = tested on: PC-3 (Human) prostate cancer cells; assay: In vitro competitive cell binding assay, PC-3; settings: competitive binding vs. ^125I-Tyr^5-6-Ahx-Phe^19-STh or ^125I-Tyr^5-Phe^19-STh
Description: as §1

[16] = tested on: A375 (Human) melanoma cells; assay: In vitro competitive cell binding assay, A375; settings: competitive binding vs. ^125I-Tyr^5-6-Ahx-Phe^19-STh or ^125I-Tyr^5-Phe^19-STh
Description: as §1

[17] = single oral doses of about 0.6 mg/kg to about […]
[18] = at equilibrium, calculated using Bmax value

## N.N.[Cl][Pt][Cl] [Cisplatin]
[1]
  oral absorption: not absorbed orally

## CC(C)C[C@@H]1NC(=O)[C@H](CCC(=O)O)NC(=O)[C@@H]2CSSC[C@@H]3NC(=O)[C@H](C)NC(=O)[C@@H]4CCCN4C(=O)[C@H](CC(N)=O)NC(=O)[C@H](CSSC[C@H](NC(=O)[C@H](Cc4ccc(O)cc4)NC(=O)[C@H](CC(N)=O)NC(=O)[C@H](CO)NC(=O)[C@H](CO)NC(=O)[C@H](CC(N)=O)NC(=O)CN4CCN(CC(=O)O)CCN(CC(=O)O)CCN(CC(=O)O)CC4)C(=O)N2)NC(=O)[C@H](CSSC[C@@H](C(=O)N[C@@H](Cc2ccccc2)C(=O)O)NC(=O)CNC(=O)[C@H]([C@@H](C)O)NC3=O)NC1=O [In-DOTA-Phe^19-STh] ({DOTA}-NSSNYCCELCCNPACTGCF-OH; disulfide 6-11, 7-15, 10-18)
[2]
  IC50: 8.9 ± 2.2 nM

## COc1cccc2c1C(=O)c1c(O)c3c(c(O)c1C2=O)C[C@@](O)(C(=O)CO)C[C@@H]3O[C@H]1C[C@H](N)[C@H](O)[C@H](C)O1 [Doxorubicin, 5,12-Naphthacenedione, (8s-cis)-10-[(3-amino-2,3,6-trideoxy-a-L-lyxo-hexopyranosyl)oxy]-7,8,9,10-tetrahydro-6,8, 11-trihydroxy-8-(hydroxyacetyl)-1-methoxy-hydrochloride]
[3]
  absorption: absorbed poorly
  elimination half-life: about 30 hours

## CS(=O)(=O)OCCCCOS(C)(=O)=O [Busulfan, 1,4-butanediol dimethanesulfonate]
[4]
  adults obtaining hematologic remission with regression or stabilization of organomegaly: Approximately 90%

## COc1cccc2c1C(=O)c1c(O)c3c(c(O)c1C2=O)C[C@@](O)([C@H](C)O)C[C@@H]3O[C@H]1C[C@H](N)[C@H](O)[C@H](C)O1 [daunorubicinol]
[5]
  half-life of active metabolite: about 27 hours

## CC[C@]1(O)C[C@@H]2CN(CCc3c([nH]c4ccccc34)[C@@](C(=O)OC)(c3cc4c(cc3OC)N(C)[C@H]3[C@@](O)(C(=O)OC)[C@H](OC(C)=O)[C@]5(CC)C=CCN6CC[C@]43[C@@H]65)C2)C1 [vinblastine]
Hodgkin's disease
  cases with significant improvement: 50 to 90%
[6]; intravenous injection
  half-life of disappearance from plasma after distribution: ~20 h
  half-life of disappearance from plasma after distribution (first given): approximately 1 hours

## O=C(O)CCCc1ccc(N(CCCl)CCCl)cc1 [Chlorambucil, 4-[bis(2-chlorethyl)amino] benzenebutanoic acid]
[7]; oral, tablet
  absorption from the gastrointestinal tract: rapidly and completely absorbed
[7]; [17]
  terminal half-life of the parent drug: about 1.5 hours
  time to peak plasma chlorambucil levels: within one hour

## N[C@@H](Cc1ccc(N(CCCl)CCCl)cc1)C(=O)O [Melphalan, 4-[bis(2-chloroethyl)amino]-L-phenylalanine]
Multiple myeloma
  patients with multiple myeloma showing a favorable response: about one third to one half
[8]
  solubility in water: insoluble in water

## O=NN(CCCl)C(=O)NCCCl [Carmustine, 1,3 bis(2-chloroethyl)-1-nitrosourea]
[8]; alcohol and lipids
  solubility in alcohol and lipids: highly soluble
[8]
  solubility in water: poorly soluble in water

## COc1cccc2c1C(=O)c1c(O)c3c(c(O)c1C2=O)C[C@@](O)(C(C)=O)C[C@@H]3O[C@H]1C[C@H](N)[C@H](O)[C@H](C)O1 [Daunorubicin, 5,12-Naphthacenedione, (8S-cis)-8-acetyl-10-[(3-amino-2,3,6-trideoxy-a-L-lyxo-hexanopyranosyl)oxy]-7,8,9,10-tetrahydro-6,8,11-trihydroxy-10-methoxy-, hydrochloride]
[5]; po
  oral absorption: poor
[5]
  half-life of elimination: about 19 hours

## CO[C@@]12[C@H](COC(N)=O)C3=C(C(=O)C(C)=C(N)C3=O)N1C[C@@H]1N[C@@H]12 [Mitomycin]
[9]; 30 mg bolus injection
  time required to reduce the serum concentration by about 50%: 17 min
[9]
  dose excreted unchanged in the urine: Approximately 10%

## O=NN(CCCl)C(=O)NC1CCCCC1 [Lomustine, 1-(2-chloro-ethyl)-3-cyclohexyl-1 nitrosourea]
[10]; about 30 mg/m^2 to 100 mg/m^2
  radioactivity excreted in the form of degradation products within 24 hours: about half
[10]
  serum half-life of the metabolites: about 16 hours to about 2 days
[8]; 10% ethanol
  solubility in 10% ethanol: about 0.05 mg/mL
[8]; absolute alcohol
  solubility in absolute alcohol: about 70 mg/mL
[8]; physiological pH
  ionization at physiological pH: relatively unionized
[8]
  solubility in water: less than 0.05 mg/mL

## ^125I-Tyr^5-6-Ahx-Phe^19-STh
T-47D cells; Scatchard plot
  Kd: 4.4 nM
T-47D cells; [18]
  No. of receptors per cell: 41,758
MB-231 cells; Scatchard plot
  Kd: 4 nM
MB-231 cells; [18]
  No. of receptors per cell: 112,786

## Cc1c2oc3c(C)ccc(C(=O)N[C@@H]4C(=O)N[C@H](C(C)C)C(=O)N5CCC[C@H]5C(=O)N(C)CC(=O)N(C)[C@@H](C(C)C)C(=O)O[C@@H]4C)c3nc-2c(C(=O)N[C@@H]2C(=O)N[C@H](C(C)C)C(=O)N3CCC[C@H]3C(=O)N(C)CC(=O)N(C)[C@@H](C(C)C)C(=O)O[C@@H]2C)c(N)c1=O [Actinomycin D] (I: T[dV]P[Sar][NMeV] / II: T[dV]P[Sar][NMeV]; ester I:1-I:C, II:1-II:C; linker I:N-II:N via Actinocin(9to1))
[11]
  dose excreted intact into the bile: Half of the dose
  dose excreted intact into the urine: 10%
  half-life: about 36 hours
  passage of the blood-brain barrier: does not pass the blood-brain barrier

## CC[C@]1(O)C[C@H]2CN(CCc3c([nH]c4ccccc34)[C@@](C(=O)OC)(c3cc4c(cc3OC)N(C=O)[C@H]3[C@@](O)(C(=O)OC)[C@H](OC(C)=O)[C@]5(CC)C=CCN6CC[C@]43[C@@H]65)C2)C1 [vincristine]
[6]; in vivo
  terminal half-life (plasma): about 24 hours

## CC(C)C[C@@H]1NC(=O)[C@H](CCC(=O)O)NC(=O)[C@@H]2CSSC[C@@H]3NC(=O)[C@H](C)NC(=O)[C@@H]4CCCN4C(=O)[C@H](CC(N)=O)NC(=O)[C@H](CSSC[C@H](NC(=O)[C@H](Cc4ccc(O)cc4)NC(=O)[C@H](CC(N)=O)NC(=O)[C@H](CO)NC(=O)[C@H](CO)NC(=O)[C@H](CC(N)=O)NC(=O)CCCCCNC(=O)CN4CCN(CC(=O)O)CCN(CC(=O)O)CCN(CC(=O)O)CC4)C(=O)N2)NC(=O)[C@H](CSSC[C@@H](C(=O)N[C@@H](Cc2ccccc2)C(=O)O)NC(=O)CNC(=O)[C@H]([C@@H](C)O)NC3=O)NC1=O [DOTA-6-Ahx-Phe^19-STh] ({DOTA-Ahx}-NSSNYCCELCCNPACTGCF-OH; disulfide 6-11, 7-15, 10-18)
[2]
  IC50: 0.5 nM
[12]
  IC50: 3.9 nM
[13]
  IC50: 14.1 nM
[14]
  IC50: 2.8 nM
[15]
  IC50: 7 nM
[16]
  IC50: 1.5 nM
